Data reported in article doi:10.1101/2021.10.07.463234v2 (biorxiv, 2021).
Structures can show the parent of a compound that is named as a salt.

The molecules below were run against SARS-CoV-2 Mac1 (Severe acute respiratory syndrome coronavirus 2, UniProt P0DTD1) (assay: biochemical). Conditions: 100 µM; inhibitor.

In order of falling “%inhibition” value:
1. COCCCN1CCC(NC(=O)c2cc(Cl)c(N)c3c2OCC3)CC1 [Prucalopride Succinate]  23.93%
2. COc1cc(Nc2ncc(F)c(Nc3ccc4c(n3)N(COP(=O)(O)O)C(=O)C(C)(C)O4)n2)cc(OC)c1OC [R788 (Fostamatinib) Disodium]  15.48%
3. COc1ccccc1OCC(O)CN1CCN(CC(=O)Nc2c(C)cccc2C)CC1 (centres unmarked) [Ranolazine]  11.36%
4. COCCCN1CCC(NC(=O)c2cc(Cl)c(N)c3c2OCC3)CC1 [Prucalopride]  8.754%
5. CCOC(=O)Nc1ccc(NCc2ccc(F)cc2)cc1N [Retigabine 2HCl]  8.664%
6. Cc1nnc(C(=O)NC(C)(C)c2nc(C(=O)NCc3ccc(F)cc3)c(O)c(=O)n2C)o1 [Raltegravir potassium]  7.113%
7. Cc1nnc(C(=O)NC(C)(C)c2nc(C(=O)NCc3ccc(F)cc3)c(O)c(=O)n2C)o1 [Raltegravir (MK-0518)]  3.868%
8. CNC(=O)c1cc(Oc2ccc(NC(=O)Nc3ccc(Cl)c(C(F)(F)F)c3)c(F)c2)ccn1 [Regorafenib (BAY 73-4506)]  2.978%
9. COCCCOc1ccnc(C[S+]([O-])c2nc3ccccc3[nH]2)c1C (centres unmarked) [Rabeprazole]  0.1163%
10. COc1ccccc1OCC(O)CN1CCN(CC(=O)Nc2c(C)cccc2C)CC1 (centres unmarked) [Ranolazine 2HCl]  0%
11. COCCCOc1ccnc(C[S+]([O-])c2nc3ccccc3[nH]2)c1C (centres unmarked) [Rebeprazole sodium]  0%
12. CNC(=O)c1cc(Oc2ccc(NC(=O)Nc3ccc(Cl)c(C(F)(F)F)c3)c(F)c2)ccn1 [Regorafenib Monohydrate]  0%
13. CCOC(=O)Nc1ccc(NCc2ccc(F)cc2)cc1N [Retigabine]  0%

Same assay, conditions: read-out: %inhibition

In order of rising inhibition at 100 µM:
1. Nc1ccc2cc3ccc(N)cc3nc2c1 [Proflavine Hemisulfate]  0%
2. CN(C)CCCN1c2ccccc2Sc2ccccc21 [Promazine hydrochloride]  0%
3. CC(CN1c2ccccc2Sc2ccccc21)N(C)C (centres unmarked) [Promethazine HCl]  0%
4. CCCNCC(O)COc1ccccc1C(=O)CCc1ccccc1 (centres unmarked) [Propafenone HCl]  0%
5. CC(C)[N+](C)(CCOC(=O)C1c2ccccc2Oc2ccccc21)C(C)C [Propantheline bromide]  0%
6. Cc1c(C(C)C)c(=O)n(-c2ccccc2)n1C [Propyphenazone (4-Isopropylantipyrine)]  0%
7. NC(=O)[C@@H]1CCCN1C(=O)[C@H](Cc1c[nH]cn1)NC(=O)[C@@H]1CCC(=O)N1 [Protirelin]  0%
8. CN(C)C(=O)Oc1ccc[n+](C)c1 [Pyridostigmine Bromide]  0%
9. Cc1ncc(COP(=O)(O)O)c(C=O)c1O [Pyridoxal phosphate]  0%
10. Cc1ncc(CO)c(CO)c1O [Pyridoxine]  0%
11. C#C[C@]1(O)CC[C@H]2[C@@H]3CCc4cc(OC5CCCC5)ccc4[C@H]3CC[C@@]21C [Quinestrol]  0%
12. C=C[C@H]1CN2CC[C@H]1C[C@@H]2[C@@H](O)c1ccnc2ccc(OC)cc12 [Quinidine sulfate]  0%
13. C=C[C@H]1CN2CC[C@H]1C[C@H]2[C@H](O)c1ccnc2ccc(OC)cc12 [Quinine HCl Dihydrate]  0%
14. Cn1cc(CNCC2CCN(c3ncc(C(=O)NO)cn3)CC2)c2ccccc21 [Quisinostat (JNJ-26481585) 2HCl]  0%
15. CC(C)(C)c1cc(NC(=O)Nc2ccc(-c3cn4c(n3)sc3cc(OCCN5CCOCC5)ccc34)cc2)no1 [Quizartinib (AC220)]  0%
16. CC(=O)SCC(Cc1ccccc1)C(=O)NCC(=O)OCc1ccccc1 (centres unmarked) [Racecadotril]  0%
17. CC(CCc1ccc(O)cc1)NCC(O)c1ccc(O)cc1 (centres unmarked) [Ractopamine HCl]  0%
18. CCOC(=O)[C@H](CCc1ccccc1)N[C@@H](C)C(=O)N1[C@H](C(=O)O)C[C@@H]2CCC[C@@H]21 [Ramipril]  0%
19. Cn1cc(C(=O)[C@@H]2CCc3[nH]cnc3C2)c2ccccc21 [Ramosetron Hydrochloride]  0%
20. C#CCN[C@@H]1CCc2ccccc21 [Rasagiline Mesylate]  0%
21. O=C(NC(Cc1cc(=O)[nH]c2ccccc12)C(=O)O)c1ccc(Cl)cc1 (centres unmarked) [Rebamipide]  0%
22. CNC(=O)c1cnn(-c2nc(N)c3ncn([C@@H]4O[C@H](CO)[C@@H](O)[C@H]4O)c3n2)c1 [Regadenoson]  0%
23. CCOc1cc(CC(=O)N[C@@H](CC(C)C)c2ccccc2N2CCCCC2)ccc1C(=O)O [Repaglinide]  0%
24. COC(=O)[C@H]1[C@H]2C[C@@H]3c4[nH]c5cc(OC)ccc5c4CCN3C[C@H]2C[C@@H](OC(=O)c2cc(OC)c(OC)c(OC)c2)[C@@H]1OC [Reserpine]  0%
25. Oc1cccc(O)c1 [Resorcinol]  0%
26. Oc1ccc(/C=C/c2cc(O)cc(O)c2)cc1 [Resveratrol]  0%
27. C=C[C@]1(C)C[C@@H](OC(=O)CS[C@@H]2C[C@H]3CC[C@@H](C2)N3C)[C@]2(C)[C@H](C)CC[C@]3(CCC(=O)[C@H]32)[C@@H](C)[C@@H]1O [Retapamulin]  0%
28. NC(=O)c1ncn([C@@H]2O[C@H](CO)[C@@H](O)[C@H]2O)n1 [Ribavirin]  0.0871%
29. CN(C)C(=O)c1cc2cnc(Nc3ccc(N4CCNCC4)cn3)nc2n1C1CCCC1 [Ribociclib (LEE011)]  0.852%
30. CC(C)(C)Cn1c(N)nc2ccc(-c3[nH]c(C(C)(C)C)nc3-c3ccc(F)cc3)nc21 [Ralimetinib (LY2228820)]  0.925%
31. CC(O)Cn1cnc2c1c(=O)n(C)c(=O)n2C (centres unmarked) [Proxyphylline]  1.62%
32. CC(=O)[C@H]1CC[C@H]2[C@@H]3CCC4=CC(=O)CC[C@]4(C)[C@H]3CC[C@]12C [Progesterone]  1.73%
33. Cc1cn(-c2cc(NC(=O)c3ccc(C)c(Nc4nccc(-c5cnccn5)n4)c3)cc(C(F)(F)F)c2)cn1 [Radotinib]  1.77%
34. CCc1nc(N)nc(N)c1-c1ccc(Cl)cc1 [Pyrimethamine]  3.53%
35. O=C(CCCCCCNC(=O)c1cnc(N(c2ccccc2)c2ccccc2)nc1)NO [Ricolinostat (ACY-1215)]  3.74%
36. O=C(O)CCn1c2c(c3ccccc31)C[C@H](NS(=O)(=O)c1ccc(F)cc1)CC2 [Ramatroban]  4.2%
37. COc1ccc(C[C@H](N)C(=O)N[C@H]2[C@@H](O)[C@H](n3cnc4c(N(C)C)ncnc43)O[C@@H]2CO)cc1 [Puromycin 2HCl]  4.39%
38. COc1ccc(CN(CCN(C)C)c2ccccn2)cc1 [Pyrilamine Maleate]  5.37%
39. OC(CCN1CCCC1)(c1ccccc1)C1CCCCC1 (centres unmarked) [Procyclidine HCl]  6.52%
40. O=C(O)CCc1nc2ccccc2[nH]1 [Procodazole]  7.67%
41. CCCCC[C@H](O)/C=C/[C@H]1[C@H](O)CC(=O)[C@@H]1C/C=C\CCCC(=O)O [Prostaglandin E2 (PGE2)]  8.12%
42. CNC(=C[N+](=O)[O-])NCCSCc1ccc(CN(C)C)o1 [Ranitidine Hydrochloride]  10.7%
43. CO[C@H]1/C=C/O[C@@]2(C)Oc3c(C)c(O)c4c(O)c(cc(O)c4c3C2=O)NC(=O)/C(C)=C\C=C\[C@H](C)[C@H](O)[C@@H](C)[C@@H](O)[C@@H](C)[C@H](OC(C)=O)[C@@H]1C [Rifamycin sodium salt]  10.7%
44. CCCc1cc(=O)[nH]c(=S)[nH]1 [Propylthiouracil]  11.2%
45. CCCOc1ccc(C(=O)OCCN(CC)CC)cc1N [Proparacaine HCl]  13%
46. CN(C)Cc1ccc(S(=O)(=O)n2ccc(/C=C/C(=O)NO)c2)cc1 [Resminostat]  18.5%
47. CC(C)c1cccc(C(C)C)c1O [Propofol]  19.3%
48. CCC(=O)NCC[C@@H]1CCc2ccc3c(c21)CCO3 [Ramelteon]  21%
49. CCCOC(C(=O)OC1CCN(C)CC1)(c1ccccc1)c1ccccc1 [Propiverine hydrochloride]  21.7%
50. NC(=O)c1cnccn1 [Pyrazinamide]  24.2%
51. Cc1nc(=O)c2cc(CN(C)c3ccc(C(=O)N[C@@H](CCC(=O)O)C(=O)O)s3)ccc2[nH]1 [Raltitrexed]  24.8%
52. CCOC(=O)[C@H](CCc1ccccc1)N[C@@H](C)C(=O)N1Cc2ccccc2C[C@H]1C(=O)O [Quinapril HCl]  25%
53. CO[C@H]1/C=C/O[C@@]2(C)Oc3c(C)c(O)c4c(O)c(c(/C=N/N5CCN(C6CCCC6)CC5)c(O)c4c3C2=O)NC(=O)/C(C)=C\C=C\[C@H](C)[C@H](O)[C@@H](C)[C@@H](O)[C@@H](C)[C@H](OC(C)=O)[C@@H]1C [Rifapentine]  26.7%
54. CO[C@H]1C[C@@H]2CC[C@@H](C)[C@@](O)(O2)C(=O)C(=O)N2CCCC[C@H]2C(=O)O[C@H]([C@H](C)C[C@@H]2CC[C@@H](O)[C@H](OC)C2)CC(=O)[C@H](C)/C=C(\C)[C@@H](O)[C@@H](OC)C(=O)[C@H](C)C[C@H](C)/C=C/C=C/C=C/1C [Rapamycin (Sirolimus)]  30.7%
55. CO[C@H]1/C=C/O[C@@]2(C)Oc3c(C)c(O)c4c(O)c(c(/C=N/N5CCN(C)CC5)c(O)c4c3C2=O)NC(=O)/C(C)=C\C=C\[C@H](C)[C@H](O)[C@@H](C)[C@@H](O)[C@@H](C)[C@H](OC(C)=O)[C@@H]1C [Rifampin]  31.3%
56. CO[C@H]1/C=C/O[C@@]2(C)Oc3c(C)c(O)c4c(c3C2=O)C2=NC3(CCN(CC(C)C)CC3)NC2=C(NC(=O)/C(C)=C\C=C\[C@H](C)[C@H](O)[C@@H](C)[C@@H](O)[C@@H](C)[C@H](OC(C)=O)[C@@H]1C)C4=O [Rifabutin]  34.6%
57. CCCc1cc(C(N)=S)ccn1 [Protionamide]  50.9%
58. O=C(c1ccc(OCCN2CCCCC2)cc1)c1c(-c2ccc(O)cc2)sc2cc(O)ccc12 [Raloxifene HCl]  63.1%
